This passage reports Ki results from US8729113B2 (Hoffmann-La Roche Inc., priority 2008, dated 2014).

Sequence of TAAR1 (Q923Y8 whole entry): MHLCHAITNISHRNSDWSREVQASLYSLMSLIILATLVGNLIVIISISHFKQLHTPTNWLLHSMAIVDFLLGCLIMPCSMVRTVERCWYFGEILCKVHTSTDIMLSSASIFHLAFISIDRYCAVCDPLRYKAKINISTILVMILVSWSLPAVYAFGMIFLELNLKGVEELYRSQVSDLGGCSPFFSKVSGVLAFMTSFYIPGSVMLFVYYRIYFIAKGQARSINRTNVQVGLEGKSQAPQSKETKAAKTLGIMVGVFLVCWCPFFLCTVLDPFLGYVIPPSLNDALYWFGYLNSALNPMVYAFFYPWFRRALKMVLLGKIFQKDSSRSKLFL

This assay concerns the target TAAR1 (Mus musculus (Mouse), UniProt Q923Y8). Briefly: Radioligand binding assay on TAAR1 (membranes of stably transfected HEK293 cells). To be noted: competition with [3H]-rac-2-(1,2,3,4-tetrahydro-1-naphthyl)-2-imidazoline, 4° C., 30 min. As to the method: For the construction of expression plasmids the coding sequences of human, rat and mouse TAAR 1 were amplified from genomic DNA essentially as described by Lindemann et al.. The Expand High Fidelity PCR System (Roche Diagnostics) was used with 1.5 mM Mg^2+ and purified PCR products were cloned into pCR2.1—TOPO cloning vector (Invitrogen) following the instructions of the manufacturer. PCR products were subcloned into the pIRESneo2 vector (BD Clontech, Palo Alto, Calif.), and expression vectors were sequence verified before introduction in cell lines.
HEK293 cells (ATCC # CRL-1573) were cultured essentially as described Lindemann et al. (2005). For the generation of stably transfected cell lines HEK293 cells were transfected with the pIRESneo2 expression plasmids containing the TAAR coding sequences (described above) with Lipofectamine 2000 (Invitrogen) according to the instructions of the manufacturer, and 24 hrs post transfection the culture medium was supplemented with 1 mg/ml G418 (Sigma, Buchs, Switzerland). After a culture period of about 10 d clones were isolated, expanded and tested for responsiveness to trace amines (all compounds purchased from Sigma) with the cAMP Biotrak Enzyme immunoassay (EIA) System (Amersham) following the non-acetylation EIA procedure provided by the manufacturer. […] Membrane Preparation and Radioligand Binding
Cells at confluence were rinsed with ice-cold phosphate buffered saline without Ca^2+ and Mg^2+ containing 10 mM EDTA and pelleted by centrifugation at 1000 rpm for 5 min at 4° C. The pellet was then washed twice with ice-cold phosphate buffered saline and cell pellet was frozen immediately by immersion in liquid nitrogen and stored until use at −80° C. Cell pellet was then suspended in 20 ml HEPES-NaOH (20 mM), pH 7.4 containing 10 mM EDTA, and homogenized with a Polytron (PT 3000, Kinematica) at 10,000 rpm for 10 s. The homogenate was centrifuged at 48,000×g for 30 min at 4° C. and the pellet resuspended in 20 ml HEPES-NaOH (20 mM), pH 7.4 containing 0.1 mM EDTA (buffer A), and homogenized with a Polytron at 10,000 rpm for 10 s. The homogenate was then centrifuged at 48,000×g for 30 min at 4° C. and the pellet resuspended in 20 ml buffer A, and homogenized with a Polytron at 10,000 rpm for 10 s. Protein concentration was determined by the method of Pierce (Rockford, Ill.). The homogenate was then centrifuged at 48,000×g for 10 min at 4° C., resuspended in HEPES-NaOH (20 mM), pH 7.0 including MgCl2 (10 mM) and […] homogenized with a Polytron at 10,000 rpm for 10 s.
Binding assay was performed at 4° C. in a final volume of 1 ml, and with an incubation time of 30 min. The radioligand [^3H]-rac-2-(1,2,3,4-tetrahydro-1-naphthyl)-2-imidazoline was used at a concentration equal to the calculated Kd value of 60 nM to give a bound at around 0.1% of the total added radioligand concentration, and a specific binding which represented approximately 70-80% of the total binding. Non-specific binding was defined as the amount of [^3H]-rac-2-(1,2,3,4-tetrahydro-1-naphthyl)-2-imidazoline bound in the presence of the appropriate unlabelled ligand (10 μM). Competing ligands were tested in a wide range of concentrations […]. […] Each experiment was performed in duplicate. All incubations were terminated by rapid filtration through UniFilter-96 plates (Packard Instrument Company) and glass filter GF/C, pre-soaked for at least 2 h in polyethylenimine 0.3%, and using a Filtermate 96 Cell Harvester (Packard Instrument Company). The tubes and filters were then washed 3 times with 1 ml aliquots of cold buffer B. Filters were not dried and soaked in Ultima gold (45 μl/well, Packard Instrument Company) and bound radioactivity was counted by a TopCount Microplate Scintillation Counter (Packard Instrument Company).
As for `CCC(CC[C@H]1COC(N)=N1)c1cc(F)cc(F)c1` (stereo partly drawn) [Example 124, (4S)-4-[3-(3,5-Difluoro-phenyl)-pentyl]-4,5-dihydro-oxazol-2-ylamine], the Ki was determined as 0.001 µM. As for `NC1=N[C@@H](CCC2(c3ccc(F)cc3)CC2)CO1` [Example 60, (S)-4-{2-[1-(4-Fluoro-phenyl)-cyclopropyl]-ethyl}-4,5-dihydro-oxazol-2-ylamine], the figure is 0.0025 µM; as for `NC1=N[C@@H](CC2CC2c2ccccc2)CO1` (stereo partly drawn) [Example 23, (4S)-4-(2-Phenyl-cyclopropylmethyl)-4,5-dihydro-oxazol-2-ylamine], 0.0031 µM. `NC1=N[C@@H](CCC2(c3ccc(F)c(F)c3)CC2)CO1` [Example 108, (S)-4-{2-[1-(3,4-Difluoro-phenyl)-cyclopropyl]-ethyl}-4,5-dihydro-oxazol-2-ylamine] showed an inhibition constant (Ki) of 0.0014 µM. Under `CC[C@@H](C[C@H]1COC(N)=N1)Oc1ccccc1` [Example 109, (S)-4-((S)-2-Phenoxy-butyl)-4,5-dihydro-oxazol-2-ylamine] stands 0.0016 µM; under `NC1=N[C@@H](CCOc2cccc(-c3ccccc3)c2)CO1` [Example 33, (S)-4-[2-(Biphenyl-3-yloxy)-ethyl]-4,5-dihydro-oxazol-2-ylamine], 0.0018 µM.

In the case of `C[Si](C)(CC[C@H]1COC(N)=N1)c1cccc(Cl)c1` [Example 61, (S)-4-{2-[(3-Chloro-phenyl)-dimethyl-silanyl]-ethyl}-4,5-dihydro-oxazol-2-ylamine], affinity was put at a Ki of 0.0055 µM. For the molecule `C[C@@H](C[C@H]1COC(N)=N1)Oc1ccc(Cl)cc1F` [Example 73, (S)-4-[(S)-2-(4-Chloro-2-fluoro-phenoxy)-propyl]-4,5-dihydro-oxazol-2-ylamine], the affinity, expressed as Ki, was 0.0021 µM. Molecule `CC[C@@H](C[C@H]1COC(N)=N1)Oc1cccc(Cl)c1` [Example 112] had a Ki of 0.0012 µM. Molecule `NC1=N[C@@H](CCOc2ccccc2)CO1` [Example 1, (S)-4-(2-Phenoxy-ethyl)-4,5-dihydro-oxazol-2-ylamine] came in with a Ki of 0.0017 µM. On to `C[C@@H](C[C@H]1COC(N)=N1)Oc1ccc(F)c(F)c1` [Example 69, (S)-4-[(S)-2-(3,4-Difluoro-phenoxy)-propyl]-4,5-dihydro-oxazol-2-ylamine], for which the Ki turned out to be 0.008 µM.

`CC[C@@H](C[C@H]1COC(N)=N1)Oc1ccc(Cl)c(F)c1` [Example 113, (S)-4-[(S)-2-(4-Chloro-3-fluoro-phenoxy)-butyl]-4,5-dihydro-oxazol-2-ylamine] showed a Ki of 0.0037 µM.

With `C[C@H](C[C@H]1COC(N)=N1)Oc1ccc(F)c(Cl)c1` [Example 85, (S)-4-[(R)-2-(3-Chloro-4-fluoro-phenoxy)-propyl]-4,5-dihydro-oxazol-2-ylamine], the Ki was 0.0059 µM. Under `CC[C@@H](C[C@H]1COC(N)=N1)Oc1ccc(Br)cc1` [Example 111, (S)-4-[(S)-2-(4-Bromo-phenoxy)-butyl]-4,5-dihydro-oxazol-2-ylamine] stands 0.001 µM; under `C[C@H](CC[C@H]1COC(N)=N1)c1ccc(F)cc1` [Example 116, (S)-4-[(R)-3-(4-Fluoro-phenyl)-butyl]-4,5-dihydro-oxazol-2-ylamine], 0.0011 µM. As for `NC1=N[C@@H](CCOc2cccc(Br)c2)CO1` [Example 35, (S)-4-[2-(3-Bromo-phenoxy)-ethyl]-4,5-dihydro-oxazol-2-ylamine], the figure is 0.0001 µM. As for `NC1=N[C@@H](CCC2(c3ccc(F)cc3F)CC2)CO1` [Example 89, (S)-4-{2-[1-(2,4-Difluoro-phenyl)-cyclopropyl]-ethyl}-4,5-dihydro-oxazol-2-ylamine], the figure is 0.0059 µM. For `CCC(CC[C@H]1COC(N)=N1)c1ccc(Cl)cc1` (stereo partly drawn) [Example 27, (4S)-4-[3-(4-Chloro-phenyl)-pentyl]-4,5-dihydro-oxazol-2-ylamine], the affinity, expressed as Ki, was 0.0017 µM. As for `CC(C)c1cccc(OCC[C@H]2COC(N)=N2)c1` [Example 21, (S)-4-[2-(3-Isopropyl-phenoxy)-ethyl]-4,5-dihydro-oxazol-2-ylamine], the figure is 0.0017 µM.

With `NC1=N[C@@H](CCOc2cccc(Cl)c2)CO1` [Example 5, (S)-4-[2-(3-Chloro-phenoxy)-ethyl]-4,5-dihydro-oxazol-2-ylamine], the inhibition constant Ki is 0.0003 µM.

For `CC[C@@H](C[C@H]1COC(N)=N1)Oc1cccc(O)c1` [Example 141, 3-[(S)-1-((8)-2-Amino-4,5-dihydro-oxazol-4-ylmethyl)-propoxy]-phenol], the Ki was 0.0037 µM. As for `NC1=N[C@@H](CCOc2ccc(C(F)(F)F)cc2)CO1` [Example 88, (S)-4-[2-(4-Trifluoromethyl-phenoxy)-ethyl]-4,5-dihydro-oxazol-2-ylamine], the figure is 0.0048 µM; as for `NC1=N[C@@H](CCOc2ccc(Cl)cc2)CO1` [Example 3, (S)-4-[2-(4-Chloro-phenoxy)-ethyl]-4,5-dihydro-oxazol-2-ylamine], 0.0005 µM; as for `CC[C@@H](C[C@H]1COC(N)=N1)Oc1ccc(F)c(Cl)c1` [Example 120, (S)-4-[(S)-2-(3-Chloro-4-fluoro-phenoxy)-butyl]-4,5-dihydro-oxazol-2-ylamine], 0.0014 µM. As for `NC1=N[C@@H](CCOc2ccc(Br)cc2)CO1` [Example 55, (S)-4-[2-(4-Bromo-phenoxy)-ethyl]-4,5-dihydro-oxazol-2-ylamine], the figure is 0.0025 µM.

As for `CC[C@@H](C[C@H]1COC(N)=N1)Oc1ccc(Cl)c(Cl)c1` [Example 122, (S)-4-[(S)-2-(3,4-Dichloro-phenoxy)-butyl]-4,5-dihydro-oxazol-2-ylamine], the Ki is 0.0007 µM. As for `NC1=N[C@@H](CCOc2ccc(F)cc2F)CO1` [Example 11, (S)-4-[2-(2,4-Difluoro-phenoxy)-ethyl]-4,5-dihydro-oxazol-2-ylamine], the figure is 0.0011 µM. Under `C[C@@H](C[C@H]1COC(N)=N1)Oc1ccc(F)cc1F` [Example 74, (S)-4-[(S)-2-(2,4-Difluoro-phenoxy)-propyl]-4,5-dihydro-oxazol-2-ylamine] stands 0.004 µM; under `NC1=N[C@@H](CCOc2cccc(OC(F)(F)F)c2)CO1` [Example 19, (S)-4-[2-(3-Trifluoromethoxy-phenoxy)-ethyl]-4,5-dihydro-oxazol-2-ylamine], 0.0021 µM.

For the molecule `C[C@@H](C[C@H]1COC(N)=N1)Oc1ccc(Cl)c(Cl)c1` [Example 75, (S)-4-[(S)-2-(3,4-Dichloro-phenoxy)-propyl]-4,5-dihydro-oxazol-2-ylamine], the affinity, expressed as Ki, was 0.001 µM. As for `CC[C@@H](C[C@H]1COC(N)=N1)Oc1ccc(F)c(F)c1` [Example 119, (S)-4-[(S)-2-(3,4-Difluoro-phenoxy)-butyl]-4,5-dihydro-oxazol-2-ylamine], the figure is 0.0017 µM; as for `CC(CC[C@H]1COC(N)=N1)c1ccccc1` (stereo partly drawn) [Example 13, (4S)-4-(3-Phenyl-butyl)-4,5-dihydro-oxazol-2-ylamine], 0.0073 µM. As for `NC1=N[C@@H](CCOc2ccc(-c3ccc(F)cc3)cc2)CO1` [Example 48, (S)-4-[2-(4′-Fluoro-biphenyl-4-yloxy)-ethyl]-4,5-dihydro-oxazol-2-ylamine], the figure is 0.0016 µM; as for `NC1=N[C@@H](CCOc2ccc(F)cc2Cl)CO1` [Example 10, (S)-4-[2-(2-Chloro-4-fluoro-phenoxy)-ethyl]-4,5-dihydro-oxazol-2-ylamine], 0.0021 µM; as for `C[C@@H](C[C@H]1COC(N)=N1)Oc1ccccc1` [Example 81], 0.0064 µM.
